Data published in a melting point compilation (Tetko et al.; mined from patent text by program, amines drawn as free bases though some values may be those of a salt).

melting point [°C]	Structure (SMILES)
91.5 to 93.5	COC1C=C(C)C(=O)CC(C)(C)C1OC(=O)c1ccccc1 (stereo not drawn)
114	O=C(O)CCS(=O)CCC(=O)O
83 to 87	CSCC(C)(C)N(C(=O)c1c(I)cccc1C(N)=O)c1ccc(Cn2nnn(-c3ccc(C(F)(F)F)cc3)c2=O)cc1C
88 to 92	CC1CCC(=Nc2ccccc2)N1Cc1c[nH]c2ccccc12 (stereo not drawn)
244 to 245	O=C1N=c2cccc(OCCN3CCC(Cc4ccccc4)CC3)c2=NC1=O
175 to 176	Nc1ccc(-c2nc(-c3ccco3)no2)c(Cl)c1
125 to 129	Oc1ccc(-c2nnc(CCCCCCc3ccccc3)o2)cc1
126	CC(c1cc2ccccc2s1)N(OCc1ccccc1)C(N)=O (stereo not drawn)
96 to 97	Cc1cc(C)cc(CC(=O)c2ccncc2)c1
101 to 107	COc1cc(C(=O)N2CCC(CCN3CCC(Nc4nc5ccccc5n4Cc4ccccn4)CC3)(c3ccc(F)c(F)c3)C2)cc(OC)c1OC (stereo not drawn)
74 to 76	CCCC(=O)C(=CNc1ccccc1OC)C(=O)OCC
92 to 94	CC(=O)CN1C(=O)c2ccccc2C1=O

The remaining lines, values behind:

Structure (SMILES)	melting point [°C]
O=C1c2cccc(NCc3ccccc3)c2C(=O)c2cccc(NCc3ccccc3)c21	218 to 220
CNS(=O)(=O)c1cccc(NC(=O)c2cnn3c(C(F)(F)F)cc(-c4ccc(C(F)(F)F)cc4)nc23)c1	232
O=c1[nH]c2cc(NO)ccc2c(=O)n1CCCCN1CC=C(c2ccccc2)CC1	187 to 189
C=CCN(CC=C)C(=O)n1cnc(S(=O)(=O)CCOCC)n1	62 to 63
CCOP(=O)(OCC)C(F)c1ccc(NC(=O)CCc2oc(-n3cnc4ccccc43)nc2-c2ccc(Cl)cc2)cc1 (stereo not drawn)	152 to 155
Cc1c(C)c2c(c(C)c1NC(=O)N1CCCC1)C(c1ccc(C(C)C)cc1)CO2 (stereo not drawn)	186 to 188
CCc1cc(Cc2cnc(N)nc2N)cc(CC)c1O	200 to 202
Cn1cc(C2=C(c3c4n(c5ccccc35)CC(O)CC4)C(=O)NC2=O)c2ccccc21 (stereo not drawn)	252 to 255
Cc1cc(C2=Nn3cnnc3SC2c2ccc(F)cc2)nc2c1OCC(=O)N2 (stereo not drawn)	256 to 257
CCCCCCCc1ccc(-c2ccc(C(=O)O)cc2)cc1	163
Cc1ccc2c(n1)Oc1ccc(C(C)C(=O)OCC(N)=O)cc1C2 (stereo not drawn)	175 to 177
CCCCc1nc2c(N)nc3ccccc3c2n1CCCCCS(C)=O (stereo not drawn)	119 to 121
COc1ccc2c(c1)c(C)cc(=O)n2Cc1ccccc1Cl	177 to 179
O=c1c2c(Cc3cccc(C(F)(F)F)c3)n[nH]c2c2cccnc2n1-c1cccc(C(F)(F)F)c1	206 to 208
CC(C)(C)NCC(O)c1ccc(OCc2ccccc2)cn1 (stereo not drawn)	69 to 73
O=C(NCc1ccn(-c2cc3[nH]c(=O)c(=O)[nH]c3cc2[N+](=O)[O-])c1)NC1CCN(Cc2ccccc2)CC1	234 to 237
CCOC(=O)C(C(=O)C(C)C)C1c2nccnc2C(=O)N1c1ccc2ccc(Cl)nc2n1 (stereo not drawn)	214
CCc1c(Sc2cc(Cl)cc(Cl)c2)c(C(N)=O)nn1CCO	214 to 216
CN(C)C(=O)Nc1ccc2c(c1)C(=O)NC(=O)C2(C)C	256 to 258
C=CCc1cc(Cc2cnc(N)nc2N)c2cccnc2c1OCCOC	196 to 200
Nc1nc2cc(F)ccc2s1	167
CC12CCC(=O)C=C1CCC1C2=CCC2(C)C1CCC2(O)C#N (stereo not drawn)	225 to 228
Cc1cc(-c2nnn(C)n2)cc(C)c1OCCCCc1nccn1C	100 to 102
O=P(O)(O)CC(O)CNO (stereo not drawn)	153 to 155
N#Cc1ccc(Cn2cncc2CCOc2ccc3c(c2CCc2ccccc2)CCCC3=O)cc1	179 to 180
O=C(O)c1ncc(C(c2ccccc2)c2ccccc2)cc1C(c1ccccc1)c1ccccc1	172 to 175
